Data as given in ChEMBL document CHEMBL1201862, “PubChem BioAssay data set” (2004).
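48-hour exposure; five concentrations; linearly interpolated endpoints. Here, GI50 denotes the concentration required for 50% inhibition of growth.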 Activity calls are given as the source filed them. No stated cut-off is given here; in the data, active = GI50 up to about 1.1 µM and inactive = higher.

Assays:
Test in all cases: inhibition of tumour cell growth, NCI panel, 48 h
MDA-MB-435 = tested on: MDA-MB-435
BT-549 = tested on: BT-549
SW-620 = tested on: SW-620
PC-3 = tested on: PC-3
IGROV-1 = tested on: IGROV-1
MDA-MB-231 = tested on: MDA-MB-231
SF-539 = tested on: SF-539
NCI-H522 = tested on: NCI-H522
NCI-H460 = tested on: NCI-H460
HT-29 = tested on: HT-29
HOP-62 = tested on: HOP-62
OVCAR-5 = tested on: OVCAR-5
UO-31 = tested on: UO-31
CAKI-1 = tested on: CAKI-1
CCRF-CEM = tested on: CCRF-CEM
HOP-92 = tested on: HOP-92
COLO 205 = tested on: COLO 205
DU-145 = tested on: DU-145
MCF7 = tested on: MCF7
HL-60 = tested on: HL-60

SMILES	GI50 (MDA-MB-435)	GI50 (BT-549)	GI50 (SW-620)	GI50 (PC-3)	GI50 (IGROV-1)	GI50 (MDA-MB-231)	GI50 (SF-539)	GI50 (NCI-H522)	GI50 (NCI-H460)	GI50 (HT-29)	GI50 (HOP-62)	GI50 (OVCAR-5)	GI50 (UO-31)	GI50 (CAKI-1)	GI50 (CCRF-CEM)	GI50 (HOP-92)	GI50 (COLO 205)	GI50 (DU-145)	GI50 (MCF7)	GI50 (HL-60)
O=C(O)c1nnsc1COCc1ccccc1	> 100 µM (inactive)	> 100 µM (inactive)	> 100 µM (inactive)	> 100 µM (inactive)	> 100 µM (inactive)	> 100 µM (inactive)	> 100 µM (inactive)	> 100 µM (inactive)	> 100 µM (inactive)	> 100 µM (inactive)	> 100 µM (inactive)	> 100 µM (inactive)	> 100 µM (inactive)	> 100 µM (inactive)	> 100 µM (inactive)	> 100 µM (inactive)	> 100 µM (inactive)	> 100 µM (inactive)	> 100 µM (inactive)	
CC(C)=CC(=O)C[C@H]1C(=O)O[C@@H]2C[C@H]3C(C)=CC(=O)[C@@H](O)[C@]3(C)[C@H]3[C@@]4(O)OC[C@]32[C@@H]1[C@@H](C)[C@H]4O	0.0222 µM (active)	0.0213 µM (active)	0.0281 µM (active)	0.0159 µM (active)	< 0.01 µM (active)	0.0454 µM (active)	< 0.01 µM (active)		< 0.01 µM (active)	< 0.0107 µM (active)	0.0227 µM (active)	0.0711 µM (active)	0.0605 µM (active)	0.0975 µM (active)	< 0.01 µM (active)	0.0216 µM (active)	0.125 µM (active)	0.0177 µM (active)	< 0.01 µM (active)	< 0.01 µM (active)
COc1cc(C2SCC(=O)N2c2ccc(Cl)cc2)cc(I)c1O (stereo not given)	1.56 µM (inactive)	48.8 µM (inactive)	> 100 µM (inactive)	> 100 µM (inactive)	> 100 µM (inactive)	> 100 µM (inactive)	> 35.9 µM (inactive)	55.8 µM (inactive)	2.74 µM (inactive)	> 100 µM (inactive)		> 100 µM (inactive)	> 100 µM (inactive)	6.43 µM (inactive)	46.1 µM (inactive)	57 µM (inactive)	2.64 µM (inactive)	> 100 µM (inactive)	4.75 µM (inactive)	15.7 µM (inactive)
Cc1nc2ccc(S(=O)(=O)O)cc2c(=O)n1-c1ccc(C(=O)NN2C(=O)C(Cl)C2c2ccccc2O)cc1 (stereo not given)	> 100 µM (inactive)	> 100 µM (inactive)	> 100 µM (inactive)	> 100 µM (inactive)	> 100 µM (inactive)	> 100 µM (inactive)	92.3 µM (inactive)	> 100 µM (inactive)		> 100 µM (inactive)	53.5 µM (inactive)	> 100 µM (inactive)	> 100 µM (inactive)	> 100 µM (inactive)	> 100 µM (inactive)	> 100 µM (inactive)	> 100 µM (inactive)	> 100 µM (inactive)	> 100 µM (inactive)	> 100 µM (inactive)
CC(=O)N1N=C(c2c(O)ccc3ccccc23)CC1c1ccc(Cl)cc1 (stereo not given)	22.4 µM (inactive)	21 µM (inactive)	28.4 µM (inactive)	17 µM (inactive)	12.4 µM (inactive)	19.1 µM (inactive)	18.4 µM (inactive)	22.9 µM (inactive)	15.1 µM (inactive)	24.7 µM (inactive)	16 µM (inactive)	14.7 µM (inactive)	19.8 µM (inactive)	32.9 µM (inactive)	3.8 µM (inactive)	10.9 µM (inactive)	19.9 µM (inactive)	43.8 µM (inactive)	15.5 µM (inactive)	
